Bridge positions count the residues as written; N and C are the ends. Peptide text beside a SMILES is read from it.
What was measured:
[1] = target: T1, Proteinase-K (Parengyodontium album, UniProt P06873); experiment: Peptide stability to Proteinase-K (SDS-PAGE); assay type: in vitro ADME; details: 10 µg peptide with 5 or 20 ng Proteinase-K (0.16 or 0.66 µg/mL), 2 h, 37 °C; 15% acrylamide SDS-PAGE, Coomassie stain
T1 construct: purchased Sigma-Aldrich
Description: 10 µg of synthetic cecropin A (Genscript, Piscataway, NJ, USA), OMN6, or bovine serum albumin (BSA; Sigma-Aldrich, St. Louis, MO, USA) were incubated with 5 or 20 ng Proteinase-K (Sigma-Aldrich; final treatment concentration of 0.16 or 0.66 µg/mL respectively) for 2 h at 37 °C, and separated on a 15% acrylamide gel (Bio-Rad, Hercules, CA, USA) by SDS-PAGE. The gel was then stained with Coomassie dye and excess color was removed over-night.

[2] = tested on: HEK293T cells; assay type: cell-based
Description: HEK-293T17 cells (ATCC CRL-1573) were purchased from ATCC and cultured to 80% confluency according to the ATCC culture method, using high-glucose and L-Glutamine Dulbecco's Modified Eagle Medium (DMEM) medium (ATCC catalog number 30-2002) supplemented with 10% fetal bovine serum and 1% Penicillin–Streptomycin solution (all from Biological Industries). For the experiment purposes, 30,000 cells were transferred to a 96-well plate (experiment plate) in a final volume of 100 µL of medium. The experiment plate was incubated at 5% CO2 and 37 °C for approximately 18 h. After 18 h, medium was discarded, and cells were co-incubated with OMN6, Melittin (Sigma-Aldrich) or dimethyl sulfoxide (DMSO; MP Biomedical LLC, Solon, OH, USA) that were prepared in new medium at desired concentrations. The experiment plate was incubated at 5% CO2 and 37 °C for 24 h. Then, glutaraldehyde at a final concentration of 0.5% was added in all wells for 10 min for cell fixation. After washing the plate 3 times with DDW, the experiment plate was dried overnight. Then, cells were washed with 0.1 M Borate buffer (pH = 8.5) for 1 min. 100 µL Methylene Blue diluted in the same Borate buffer was added to all wells for 1 h. Wells were washed with DDW and plate was dried overnight. Color extraction was executed by adding 0.1 M HCl. After an incubation at 37 °C for 1 h, cell survival was determined via absorbance at 620 nm using a microplate reader.

[3] = tested on: Acinetobacter baumannii clinical isolates; experiment: Time-kill studies; assay type: cell-based
Description: Time-kill experiments were performed by JMI Laboratories (North Liberty, IA, USA) as described in chapter 5.14 of the Clinical Microbiology Procedures Handbook[32] and the CLSI M26-A[33] document. Two Acinetobacter baumannii clinical isolates (JMI colistin-sensitive strain #1088100 and colistin-resistant strain #1001007) were used for this study. MIC values that were determined in Difco Muller Hinton Broth (BD) for OMN6 and colistin as described above, were used as the baseline values during time-kill testing. In the time-kill experiments, OMN6 and colistin were tested in Difco Muller Hinton Broth. The time-kill cultures were sampled at 0, 2, 4, 8, and 24 h after compound addition. The number of CFU/mL in each culture was measured by plating 100 μL of serial dilutions onto blood agar plates. Colonies were counted after 48 h of growth at 35 °C. Time-kill curves were generated by plotting CFU/mL as log10 values over time. The limit of detection was 10 CFU/mL. Bactericidal activity was defined as a ≥ 99.9% reduction (i.e., a ≥ 3 log10 decrease) in the number of input bacterial cells at any arbitrary timepoint.

[4] = tested on: Gram-positive strains (S. aureus, E. faecium, E. faecalis, B. cereus); experiment: MIC, broth microdilution (CLSI), summary over strains; assay type: cell-based; details: E. faecalis and B. cereus, summary of Table 1
Source text: (Italy), an Evotec Company.

[5] = tested on: E. coli GFPuv; assay type: cell-based, Escherichia coli
Description: E. coli GFPuv bacteria (contribution from Dr. Tsafi Danieli, head of the Protein Expression Facility at the Hebrew University of Jerusalem, Israel) were grown in LB broth (BD) and induced to express the Green Fluorescent Protein (GFP) in auto-induction medium, as previously described by F.W. Studier[31]. Briefly, bacteria were cultured for 3 h at 37 °C while shaking at 200 rpm, in induction medium ZYP-5052 containing 1% N-Z amine AS, 0.5% yeast extract, 50 mM Na2HPO4, 50 mM KH2HPO4, 25 mM (NH4)2SO4, 2 mM MgSO4, 0.5% glycerol, 0.05% glucose and 0.2% lactose. For the bacterium visualization experiment, 2 × 10^6 colony-forming units (CFU) were treated by 16 µg/mL OMN6 or Double-Distilled Water (DDW) for 60 min. Bacteria were monitored with a confocal microscope at a wavelength of 488 nm. Then, bacteria were seeded on LB agar (BD) plates, incubated at 37 °C for 24 h, and CFU were counted. For the supernatant visualization and quantification experiment, 10^5 CFU were co-incubated with 50 µM OMN6 or DDW for 30 min, and bacteria were collected and centrifuged at 5000 rpm for 10 min. Experiment tubes were visualized under UV light. Then, supernatants were collected, and the absence of a significant quantity of bacteria in the supernatants was checked in a microplate reader by absorbance at 600 nm (OD < 0.05). Fluorescence levels were then quantified with excitation at 395 nm and emission at 509 nm.

[6] = tested on: mouse red blood cells; experiment: Hemolysis assay; assay type: cell-based; details: 10% mouse erythrocytes, 6.25–200 µM (27–868 µg/mL), 1 h, 37 °C, absorbance 400 nm
Description: Red Blood Cells (RBCs) suspension was prepared from whole blood extracted from the heart of Hsd:ICR (CD-1) mice (Envigo, Huntingdon, Cambridgeshire, UK). The study was carried out in accordance with relevant guidelines and regulations, and was approved by the Hebrew University Ethics Committee for the Care and Use of Laboratory Animals under approval number NS-15-14575-3. Briefly, blood was collected in a 24 U/mL heparin tube to prevent coagulation. Then cells were washed with Phosphate Buffered Saline (PBS; Biological Industries) and centrifuged at 200g for 10 min at 20 °C. This operation was repeated three times, then remaining RBCs were resuspended in saline or PBS to form a 10% RBC solution. Increasing concentrations of OMN6 or 1% Tween were added to RBCs. After an incubation of 1 h at 37 °C with shaking at 100 rpm, experiment tubes were centrifuged for 10 min at 200g at room temperature. 100 µL supernatant was extracted from each tube and tested according to the Hemoglobin Assay Kit (Sigma-Aldrich). Hemoglobin levels were determined via absorbance at 400 nm.

T1 sequence (P06873 106-384): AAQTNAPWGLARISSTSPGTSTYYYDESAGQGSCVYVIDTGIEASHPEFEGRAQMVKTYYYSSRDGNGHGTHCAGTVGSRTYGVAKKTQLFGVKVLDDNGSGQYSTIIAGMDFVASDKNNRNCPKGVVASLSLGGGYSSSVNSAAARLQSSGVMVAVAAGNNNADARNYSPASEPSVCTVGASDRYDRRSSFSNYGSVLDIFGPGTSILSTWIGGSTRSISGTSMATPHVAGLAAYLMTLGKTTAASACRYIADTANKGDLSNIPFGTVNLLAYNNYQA

CC[C@H](C)[C@@H]1NC(=O)CNC(=O)[C@H](CC(=O)O)NC(=O)[C@H](CCCNC(=N)N)NC(=O)[C@H]([C@@H](C)CC)NC(=O)[C@H](CC(N)=O)NC(=O)[C@H](CCC(N)=O)NC(=O)CNC(=O)[C@H](C(C)C)NC(=O)[C@H](CCCCN)NC(=O)[C@H](CCC(=O)O)NC(=O)[C@H]([C@@H](C)CC)NC(=O)[C@H](CCCCN)NC(=O)[C@H](CCCCN)NC(=O)[C@H](Cc2ccccc2)NC(=O)[C@H](CC(C)C)NC(=O)[C@H](CCCCN)NC(=O)[C@H](Cc2c[nH]c3ccccc23)NC(=O)[C@H](CCCCN)NC(=O)[C@@H](NC(=O)[C@@H](N)CCSC)CSSC[C@@H](C(N)=O)NC(=O)[C@H](CCCCN)NC(=O)[C@H](C)NC(=O)[C@H]([C@@H](C)CC)NC(=O)[C@H](CCC(N)=O)NC(=O)[C@H]([C@@H](C)O)NC(=O)[C@H](C)NC(=O)[C@H](CCC(N)=O)NC(=O)CNC(=O)[C@H](C(C)C)NC(=O)[C@H](C(C)C)NC(=O)[C@H](C)NC(=O)[C@H](C(C)C)NC(=O)[C@H](C)NC(=O)[C@@H]2CCCN2C(=O)CNC(=O)[C@H](C)NC(=O)[C@H](CCCCN)NC(=O)[C@H]([C@@H](C)CC)NC1=O [OMN6] (H-MCKWKLFKKIEKVGQNIRDGIIKAGPAVAVVGQATQIAKC-NH2; disulfide 2-40; N-terminus assumed)
Stability after exposure to Proteinase-K [1]: remained intact | Survival rate of HEK293T cells ([2]; 6.25–200 µM (27–868 µg/mL), 24 h, Methylene Blue, absorbance 620 nm, all concentrations): not affected | Therapeutic window (no toxicity to mammalian cells vs MIC value against Gram-negative bacterial species) ([2]; relative to MIC against Gram-negative species): larger than tenfold | Bactericidal pattern on colistin-resistant strain ([3]; colistin-resistant A. baumannii JMI #1001007, similar timeframe and concentrations as on the colistin-sensitive strain): retained its bactericidal pattern | Concentrations with bactericidal effect after 2 h of incubation ([3]; colistin-sensitive A. baumannii JMI #1088100, Difco Muller Hinton Broth, bactericidal = ≥ 3 log10 decrease): > 8 µg/mL | Re-growth during the 24 h timeframe ([3]; colistin-sensitive A. baumannii JMI #1088100, Difco Muller Hinton Broth, sampled 0, 2, 4, 8, 24 h): No re-growth | MIC on all tested Gram-positive strains [4]: > 256 µg/mL | Reduction in fluorescence arbitrary units (FU) of a bacterium, T = 0 h to T = 1 h (GFP leakage) ([5]; 16 µg/mL, 60 min, confocal microscope 488 nm, single bacterium): 12,000 FU | CFU on agar plates after treatment (bacterial death) ([5]; 2 × 10^6 CFU, 16 µg/mL, 60 min, then LB agar 37 °C 24 h, data not shown): No CFU | Level of fluorescence (FU) in supernatants vs DDW control ([5]; E. coli GFPuv 10^5 CFU, 50 µM, 30 min, centrifuged 5000 rpm, excitation 395 nm, emission 509 nm, p = 0.01): distinct increase | Hemolysis expressed as free Hemoglobin [6]: no hemolysis

— paper PMC7988117, “OMN6 a novel bioengineered peptide for the treatment of multidrug resistant Gram negative bacteria” (Scientific Reports, 2021)
